Our source for the melting point and IC50 values is patent publication US6512000B1, “Aminocarbonyl-substituted benzimidazoles having tryptase-inhibitory activity” (Boehringer Ingelheim Pharma KG, priority 1999, dated 2003).

Data set [1] has as its target T1, rh beta tryptase (Homo sapiens, UniProt P20231).
T1 construct: purchased Promega
The data set is described as follows: Tryptase inhibition test (cleavage of N-p-tosyl-Gly-Pro-Lys-para-nitroaniline, p-nitroaniline measured at 405 nm). Format: biochemical. Particulars: concentration at which 50% of the tryptase enzyme activity is inhibited; substrate 0.6 mM, pH 7.4, 37° C. Put shortly:
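Recombinant human beta tryptase (0.91 U/ml) in 100 mM Tris HCl pH 7.4 with 5 mM calcium and 100 mg/ml heparin; compounds pre-incubated 5 min, then 0.6 mM tosyl-Gly-Pro-Lys-pNA added, 5 min at 37 °C. p-Nitroaniline read at 405 nm; % inhibition at 10 μM, IC50 determined when inhibition exceeded 70%.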

Structures can show the parent of a compound that is named as a salt.

T1 sequence (P20231 31-275): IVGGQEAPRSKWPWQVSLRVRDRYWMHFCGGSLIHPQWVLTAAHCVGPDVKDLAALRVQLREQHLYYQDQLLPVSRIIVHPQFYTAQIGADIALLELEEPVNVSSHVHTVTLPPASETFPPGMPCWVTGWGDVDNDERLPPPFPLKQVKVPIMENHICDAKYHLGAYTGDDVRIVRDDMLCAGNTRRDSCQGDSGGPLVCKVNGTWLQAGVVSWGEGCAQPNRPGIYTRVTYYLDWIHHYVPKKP

As a reminder, the melting point is the temperature, or range, at which the solid turns liquid. A word on the IC50: it is the concentration that inhibits the measured activity by half. Molecule `Cl.Cl.Cn1c(CCc2ccc(C(=N)N)cc2)nc2cc(C(=O)N(CCN(Cc3ccccc3)Cc3ccccc3)C3CCCCC3)ccc21` [Example 2, 2-[2-(4-Amidinophenyl)ethyl]-1-methyl-benzimidazol-5-yl-carboxylic Acid-N-[2-(N,N-dibenzylamino)ethyl]-N-cyclohexyl-amide-dihydrochloride] registered a melting point of 140 to 148 °C. Moreover, it took 153 nM to reach half-maximal inhibition in data set [1] (IC50).

In turn, `CCOC(=O)C(Cc1ccc(C(=N)N)cc1)N(C)C(=O)c1ccc2c(c1)nc(CCc1ccc(C(=N)N)cc1)n2C` (stereo not drawn) (as salt: formate) [Example 29, Ethyl 2-{2-[2-(4-Amidinophenyl)-ethyl]-1-methyl-benzimidazol-5-yl-carbonyl-(methylamino)}-3-(4-amidinophenyl)-propionate-formate] gave a melting point of 230 °C. Consider `CN(C)CCN(C)C(=O)c1ccc2c(c1)nc(CCc1ccc(C(=N)N)cc1)n2C` (as salt: hydrochloride) [Example 3, 2-[2-(4-Amidinophenyl)-ethyl]1l-methyl-benzimidazol-5-yl-carboxylic Acid-N-[2-(N,N-dimethylamino)-ethyl]-N-methyl-amide-dihydrochlonide], for which the melting point was over 220 °C. Still for that read-out and setting: with `Cn1c(CCc2ccc(C(=N)N)cc2)nc2cc(C(=O)N(CCC(=N)N)Cc3ccccc3)ccc21` (as salt: hydrochloride) [Example 9, 2-[2-(4-Amidinophenyl)-ethyl]-1-methyl-benzimidazol-5-yl-carboxylic Acid-N-(2-amidinoethyl)-N-benzyl-amide-dihydrochloride] the figure was over 220 °C; with `Cn1c(CCc2ccc(C(=N)N)cc2)nc2cc(C(=O)N(CCC(=N)N)CCc3ccccc3)ccc21` (as salt: hydrochloride) [Example 24, 2-[2-(4-Amidinophenyl)-ethyl]-1-methyl-benzimidazol-5-yl-carboxylic Acid-N-(2-amidinoethyl)-N-(2-phenylethyl)-amide-dihydrochloride], 185 to 190 °C. `Cn1c(CCc2ccc(C(=N)N)cc2)nc2cc(C(=O)NCCC(c3ccccc3)c3ccccc3)ccc21` (as salt: hydrochloride) registered a melting point of 185 °C. Same read-out and setting: under `Cn1c(CCc2ccc(C(=N)N)cc2)nc2cc(C(=O)NC(Cc3ccc(C(=N)N)cc3)C(=O)O)ccc21` (stereo not drawn) [Example 30, 2-{2-[2-(4-Amidinophenyl)-ethyl]-1-methyl-benzimidazol-5-yl-carbonylamino}-3-(4-amidinophenyl)-propionic Acid-diformate] stands 165 °C; under `Cl.Cl.Cl.Cn1c(CCc2ccc(CN)cc2)nc2cc(C(=O)NCCNc3ccccc3)ccc21`, over 220 °C; under `Cc1ccc(N(CCC(=N)N)C(=O)c2ccc3c(c2)nc(CCc2ccc(C(=N)N)cc2)n3C)cc1` (as salt: hydrochloride) [Example 26, 2-[2-(4-Amidinophenyl)-ethyl]-1-methyl-benzimidazol-5-yl-carboxylic Acid-N-(2-amidinoethyl)-N-(4-methyl-phenyl)-amide-dihydrochloride], 222 to 225 °C. Molecule `Cn1c(CCc2ccc(C(=N)N)cc2)nc2cc(C(=O)N(CCC(=N)N)Cc3cccnc3)ccc21` (as salt: hydrochloride) [Example 10, 2-[2-(4-Amidinophenyl)-ethyl]-1-methyl-benzimidazol-5-yl-carboxylic Acid-N-(2-amidinoethyl)-N-(3-pyridylmethyl)-amide-dihydrochloride] came in with a melting point of 225 to 228 °C. In the case of `CN(Cc1ccc(C(=N)N)cc1)C(=O)c1ccc2c(c1)nc(CCc1ccc(C(=N)N)cc1)n2C` (as salt: hydrochloride) [Example 4, 2-[2-(4-Amidinophenyl)-ethyl]-1-methyl-benzimidazol-5-yl-carboxylic Acid-N-(4-amidino-benzyl)-N-methyl-amide-trihydrochloride], the melting point was over 220 °C. With `Cn1c(CCc2ccc(CN)cc2)nc2cc(C(=O)N(CCC(c3ccccc3)c3ccccc3)Cc3ccc(CN)cc3)ccc21` (as salt: hydrochloride) [Example 43, 2-[2-(4-Aminomethyl-phenyl)-ethyl]-1-methyl-benzimidazol-5-yl-carboxylic Acid-N-(4-aminomethylbenzyl)-N-(3,3-diphenylpropyl)-amide-dihydrochloride], the melting point is 140 °C. Same read-out and setting: with `CC(=O)NCCCCC(NC(=O)c1ccc2c(c1)nc(CCc1ccc(C(=N)N)cc1)n2C)C(=O)O` (stereo not drawn) (as salt: formate) [Example 34] the figure was 158 °C; with `Cn1c(CCc2ccc(CN)cc2)nc2cc(C(=O)NCCC(c3ccccc3)c3ccccc3)ccc21` (as salt: hydrochloride) [Example 40, 2-[2-(4-Aminomethyl-phenyl)-ethyl]-1-methyl-benzimidazol-5-yl-carboxylic Acid-N-(3,3-diphenylpropyl)-amide-dihydrochloride], 140 °C.
